# Where two headings read alike, the source gives them in different places.
# Assays:
# Caco-2 cell = system: Caco-2 cell; set-up: method as in Yu et al. (2017); settings: Caco-2 cell culture model; ref Yu et al. (2017); cited from earlier work
# [1] = set-up: method as in Di et al. (2015); settings: ref Di et al. (2015); cited from earlier work
# P-glycoprotein (P-gp) = system: P-glycoprotein (P-gp); set-up: method as in Teng et al., 2007, 2012; Liu et al., 2012; settings: ref Teng et al., 2007, 2012, Liu et al.; cited from earlier work
# MRP3 [2] = target: T1, MRP3 (Rattus norvegicus, UniProt O88563); test: Emodin transport in jejunum in the presence of MRP3 inhibitor benzbromarone (Ussing chamber); format: in vitro ADME
# T1 construct: intestinal segments including duodenum, jejunum, ileum, and colon from anesthetized rats were immediately removed by surgery; from tissue; host or cells: stripped rat intestine (jejunum and ileum in validation; jejunum for the emodin studies)
# From the text: (§1) The four intestinal segments including duodenum, jejunum, ileum, and colon from anesthetized rats were immediately removed by surgery and washed with KRB solution. Each section of the intestinal segments was then placed in cold (on ice), bubbled (O2:CO2 95:5) KRB buffer. The four intestinal segments were then cut into 2 cm pieces, respectively, and serosas were removed by blunt dissection. Peyer’s patches were excluded from the experiment by visually identified. The stripped tissues were mounted in chambers with exposed surface area of 0.49 cm^2. Temperature of the chambers was maintained at 37 ± 0.5°C. Each of the half-cells in the chambers was filled with 5 mL fresh KRB buffer (pH 6.5). […]
# (§2) In this study, the effects of the three efflux transporters on emodin intestinal absorption were investigated. […] Changes of the bidirectional transport characteristic were measured before and after adding emodin to the mucosal side. […]
# (§3) The quantifications of the compounds were performed by the TSQ Quantum Ultra Triple Quadrupole LC-MS/MS system from Thermo Fisher Scientific. […]
# (§4) The Q (accumulative quantity), Papp (apparent permeability), Er (efflux ratio), Pr (Papp ratio), and Err (Er ratio) across the excited rat intestinal segments in the Ussing chamber were calculated using the following equations ([Li et al., 2012]; [Huang et al., 2016]): […]
# MRP3 [3] = target: T1, MRP3; test: Influence of emodin on MRP3 function: teniposide bidirectional transport in the presence of emodin (Ussing chamber); format: in vitro ADME; settings: rat jejunum; for Papp at 60 μM: rat
# From the text: (§5) The four intestinal segments including duodenum, jejunum, ileum, and colon from anesthetized rats were immediately removed by surgery and washed with KRB solution. Each section of the intestinal segments was then placed in cold (on ice), bubbled (O2:CO2 95:5) KRB buffer. The four intestinal segments were then cut into 2 cm pieces, respectively, and serosas were removed by blunt dissection. Peyer’s patches were excluded from the experiment by visually identified. The stripped tissues were mounted in chambers with exposed surface area of 0.49 cm^2. Temperature of the chambers was maintained at 37 ± 0.5°C. Each of the half-cells in the chambers was filled with 5 mL fresh KRB buffer (pH 6.5). Tissue viability was continuously controlled by potential difference (PD). Tissue with electrical values less than 2 mV was refused ([Moazed and Hiebert, 2007]; [Heinen et al., 2013]).
# (§6) In this study, the effects of the three efflux transporters on emodin intestinal absorption were investigated. Meanwhile, the influence of emodin on intestinal P-gp, MRP2, and MRP3 functions were also discussed. Solutions with three concentrations (low, middle, and high) of emodin were filled in the mucosal or serosal compartment to measure the bidirectional transport characteristic. […] In the emodin impact experiments, digoxin, pravastatin, and teniposide were employed as P-gp, MRP2, and MRP3 substrates. Changes of the bidirectional transport characteristic were measured before and after adding emodin to the mucosal side.
# (§7) Frozen samples were adequately vortexed after thawing at the room temperature; 10 μL suitable IS solution was added to 200 μL samples; 200 μL methanol was added after a thorough vortex mixing for 30 s. The mixtures were then vortexed for 30 s and centrifuged at 15,000 rpm for 30 min. Finally, 5 μL of supernatant was injected into the LC-MS/MS system.
# (§8) The quantifications of the compounds were performed by the TSQ Quantum Ultra Triple Quadrupole LC-MS/MS system from Thermo Fisher Scientific. Chromatography was carried out using an Agilent Poroshell 120 SB-C18 (2.7 μm, 2.1 mm × 100 mm) column with a Phenomenex AFO-8497 C18 pre-column, operating at 30°C. Adaptive gradient elution methods were applied for the analytes. The flow rate of the mobile phase was kept at 0.2 mL min^-1. Flow was directed to the ion spray interface. All measurements were carried out in negative ESI mode. Ion spray voltage was -2500 V. Vaporizer and capillary temperatures were set at 250 and 350°C, respectively. Auto sampler temperature was set at 10°C. Sheath gas and aux gas were set at 30 and 15 Arb, respectively. […] Peak integrations and calibrations were carried out using LC Quan 2.5.2 software from Thermo Fisher Scientific.
# as §4
# (§9) where Cn (nM) is the concentration of the drug at the time point (n), Q (nM) is the accumulated absorption amount, A is the exposed surface area of the intestine (0.49 cm^2), dQ/dt (nM⋅s^-1) is the amount of the drug transported, and C0 (nM) is the initial concentration of the test drug. Experiments were performed in batches, so control groups were set as one for each batch.
# P-gp [4] = test: Emodin transport in jejunum in the presence of P-gp inhibitor verapamil (Ussing chamber); settings: rat jejunum, emodin 9.25 μM, verapamil 220 μM on mucosal side
# From the text: as §1, §2, §3, §4
# [5] = Absorption characteristics of emodin in rat intestinal segments (Ussing chamber)
# From the text: as §5
# as §6, with “side. […]” for “side.”
# as §3, §4
# P-gp [6] = test: Influence of emodin on P-gp function: digoxin bidirectional transport in the presence of emodin (Ussing chamber); format: in vitro ADME; settings: rat jejunum, emodin 185, 370, 740 μM, digoxin as substrate
# From the text: as §5, §6, §7, §8, §4, §9
# MRP2 = MRP2 (Rattus norvegicus, UniProt Q63120); test: Emodin transport in jejunum in the presence of MRP2 inhibitor MK571 (Ussing chamber); settings: MK571 186 μM on mucosal side
# From the text: as §1, §2, §3, §4
# [7] = system: multidrug-resistant associated protein 2 (MRP2); set-up: method as in Teng et al., 2007, 2012; Liu et al., 2012; settings: ref Teng et al., 2007, 2012, Liu et al.; cited from earlier work
# MRP3 [8] = target: T1, MRP3; test: Ussing chamber bidirectional transport, model validation for MRP3 (teniposide substrate, benzbromarone inhibitor); format: in vitro ADME; settings: rat
# From the text: as §5
# Digoxin, pravastatin, and teniposide were employed as the test substrates of P-gp, MRP2, and MRP3. […] The experiments were started after 30 min equilibration time, by changing the KRB buffer on both sides; 5 mL KRB solution with different test compounds was filled in the mucosal or serosal compartment; meanwhile, equal volume fresh buffer was added to the other compartment. […] The bidirectional transport studies with specific inhibitors were assessed to validate this model whether or not suitable for P-gp, MRP2, and MRP3 studies. Samples were stored at –80°C until analysis ([Deusser et al., 2013]).
# as §7, §8, §4, §9
# T1 sequence (O88563 whole entry): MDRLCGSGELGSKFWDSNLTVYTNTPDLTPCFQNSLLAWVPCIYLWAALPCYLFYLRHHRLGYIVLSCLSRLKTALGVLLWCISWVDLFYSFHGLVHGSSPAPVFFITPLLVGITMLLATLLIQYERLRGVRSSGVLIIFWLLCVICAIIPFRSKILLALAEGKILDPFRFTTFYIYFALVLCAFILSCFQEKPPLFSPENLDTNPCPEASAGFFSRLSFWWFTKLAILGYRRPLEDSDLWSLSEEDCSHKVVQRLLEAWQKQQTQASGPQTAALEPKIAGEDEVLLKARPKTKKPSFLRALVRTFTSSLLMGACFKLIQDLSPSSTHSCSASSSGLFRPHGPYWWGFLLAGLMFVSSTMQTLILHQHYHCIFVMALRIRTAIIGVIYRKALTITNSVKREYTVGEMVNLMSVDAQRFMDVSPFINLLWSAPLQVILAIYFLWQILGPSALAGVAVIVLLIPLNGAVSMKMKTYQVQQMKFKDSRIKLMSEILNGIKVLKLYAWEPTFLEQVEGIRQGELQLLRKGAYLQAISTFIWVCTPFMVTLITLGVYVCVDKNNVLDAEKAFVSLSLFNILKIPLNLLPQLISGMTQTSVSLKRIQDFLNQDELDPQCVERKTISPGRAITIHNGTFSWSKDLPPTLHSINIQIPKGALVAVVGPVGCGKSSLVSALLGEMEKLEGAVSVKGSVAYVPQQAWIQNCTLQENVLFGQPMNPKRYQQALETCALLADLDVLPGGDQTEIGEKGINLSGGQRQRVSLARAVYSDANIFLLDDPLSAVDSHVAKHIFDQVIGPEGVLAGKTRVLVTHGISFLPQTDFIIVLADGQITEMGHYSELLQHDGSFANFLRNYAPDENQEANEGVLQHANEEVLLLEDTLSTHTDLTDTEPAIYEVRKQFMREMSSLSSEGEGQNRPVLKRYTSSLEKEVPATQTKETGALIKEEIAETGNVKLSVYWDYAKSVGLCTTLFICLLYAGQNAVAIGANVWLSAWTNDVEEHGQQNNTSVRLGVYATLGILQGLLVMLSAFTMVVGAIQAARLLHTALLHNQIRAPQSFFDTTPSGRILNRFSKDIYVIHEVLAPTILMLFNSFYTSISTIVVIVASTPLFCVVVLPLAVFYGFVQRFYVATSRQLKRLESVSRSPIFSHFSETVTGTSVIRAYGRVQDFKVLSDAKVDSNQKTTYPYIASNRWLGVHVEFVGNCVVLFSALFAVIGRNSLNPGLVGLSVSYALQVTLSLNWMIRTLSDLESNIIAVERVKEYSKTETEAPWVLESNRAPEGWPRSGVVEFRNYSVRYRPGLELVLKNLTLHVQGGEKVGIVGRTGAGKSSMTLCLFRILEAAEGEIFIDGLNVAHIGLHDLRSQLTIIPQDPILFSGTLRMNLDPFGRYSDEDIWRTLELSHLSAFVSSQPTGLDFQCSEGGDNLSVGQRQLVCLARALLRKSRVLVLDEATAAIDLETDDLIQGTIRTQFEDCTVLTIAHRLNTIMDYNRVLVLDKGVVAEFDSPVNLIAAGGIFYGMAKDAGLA
# Sequence of MRP2 (Q63120 whole entry): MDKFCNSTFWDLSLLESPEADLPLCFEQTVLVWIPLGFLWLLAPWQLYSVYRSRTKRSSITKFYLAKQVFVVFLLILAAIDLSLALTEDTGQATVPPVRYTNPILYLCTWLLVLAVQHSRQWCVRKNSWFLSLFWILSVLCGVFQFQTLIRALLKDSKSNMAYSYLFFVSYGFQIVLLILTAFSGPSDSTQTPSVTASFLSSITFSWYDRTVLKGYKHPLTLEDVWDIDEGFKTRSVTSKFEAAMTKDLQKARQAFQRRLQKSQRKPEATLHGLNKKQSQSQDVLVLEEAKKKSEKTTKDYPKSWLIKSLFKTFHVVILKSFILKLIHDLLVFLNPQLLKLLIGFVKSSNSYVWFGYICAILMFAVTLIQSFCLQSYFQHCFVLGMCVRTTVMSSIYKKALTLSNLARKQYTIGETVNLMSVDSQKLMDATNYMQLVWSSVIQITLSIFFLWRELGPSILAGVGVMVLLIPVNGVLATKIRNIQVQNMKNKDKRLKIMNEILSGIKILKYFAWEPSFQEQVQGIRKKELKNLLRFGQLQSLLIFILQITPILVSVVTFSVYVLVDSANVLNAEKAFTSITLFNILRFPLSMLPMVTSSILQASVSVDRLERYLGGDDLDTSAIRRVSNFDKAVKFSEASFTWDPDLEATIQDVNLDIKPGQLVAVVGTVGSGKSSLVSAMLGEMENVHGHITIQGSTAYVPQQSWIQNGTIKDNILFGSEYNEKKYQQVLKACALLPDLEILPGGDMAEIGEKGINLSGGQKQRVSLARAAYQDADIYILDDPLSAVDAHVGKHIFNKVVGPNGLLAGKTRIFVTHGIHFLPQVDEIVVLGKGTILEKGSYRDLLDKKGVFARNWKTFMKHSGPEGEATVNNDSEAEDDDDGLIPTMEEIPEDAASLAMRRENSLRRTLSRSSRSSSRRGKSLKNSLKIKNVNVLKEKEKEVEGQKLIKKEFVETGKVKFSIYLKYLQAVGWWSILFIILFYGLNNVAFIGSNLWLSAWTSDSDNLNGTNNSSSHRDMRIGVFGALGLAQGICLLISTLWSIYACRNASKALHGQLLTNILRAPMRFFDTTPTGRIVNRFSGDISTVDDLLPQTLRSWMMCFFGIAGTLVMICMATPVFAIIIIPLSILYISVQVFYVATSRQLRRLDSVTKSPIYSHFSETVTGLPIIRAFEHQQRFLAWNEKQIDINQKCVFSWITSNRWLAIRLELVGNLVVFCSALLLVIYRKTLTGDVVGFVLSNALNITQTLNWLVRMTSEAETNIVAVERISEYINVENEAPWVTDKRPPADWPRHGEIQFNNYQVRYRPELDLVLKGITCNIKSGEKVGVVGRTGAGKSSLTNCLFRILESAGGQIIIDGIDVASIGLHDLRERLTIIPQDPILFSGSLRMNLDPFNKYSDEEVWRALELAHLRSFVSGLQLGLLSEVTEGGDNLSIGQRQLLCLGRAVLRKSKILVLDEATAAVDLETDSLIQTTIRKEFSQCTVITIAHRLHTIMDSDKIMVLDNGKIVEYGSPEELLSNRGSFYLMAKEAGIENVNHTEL
smiles,measurement,setting,value
"OC[C@H]1O[C@@H](Oc2c(O)cc(O)cc2C=Cc2ccc(O)cc2)[C@H](O)[C@@H](O)[C@@H]1O [2,3,5,4’-tetrahydroxystilbene-2-β-D-glucoside]",Effect on emodin absorption,Caco-2 cell,could enhance
O=C(/C=C/C=C/c1ccc2c(c1)OCO2)N1CCCCC1 [piperine],Effect on glucuronidation metabolism of emodin,[1],inhibited
same,Effect on in vivo bioavailability of emodin,[1],significantly improved
"Cc1cc(O)c2c(c1)C(=O)c1cc(O)cc(O)c1C2=O [Emodin, 1,3,8trihydroxy-6-methylanthraquinone]",Substrate of P-gp,P-glycoprotein (P-gp),substrate
same,Substrate of MRP3,MRP3 [2]; Ussing chamber,might not be a substrate
same,Change of emodin transport with benzbromarone,MRP3 [2]; benzbromarone 470 μM on mucosal side,no significant differences
same,Effect of emodin on MRP3 function,"MRP3 [3]; emodin 185, 370, 740 μM, teniposide as substrate",might be an MRP3 inhibitor
same,Change of emodin absorption (M-S) with verapamil,P-gp [4],markedly increase
same,Change of emodin efflux ratio with verapamil,P-gp [4],decrease
same,Regioselectivity of intestinal absorption rates,"[5]; duodenum, jejunum, ileum, colon, 9.25, 18.5 and 37 μM",no regioselectivity
same,Papp values from M-S,"[5]; rat intestinal segments, lowest concentration (9.25 μM)",very low
same,Er (efflux ratio) of emodin,"[5]; rat jejunum, at all three concentrations 9.25, 18.5 and 37 μM",more than five
same,Effect of emodin on P-gp function,P-gp [6],could enhance P-gp function
same,Change of emodin Papp from mucosal to serosal side with MK571,MRP2,significantly increased
same,Change of emodin efflux ratio with MK571,MRP2,decreased
same,Substrate of MRP2,[7],substrate
COc1cc([C@@H]2c3cc4c(cc3[C@@H](O[C@@H]3O[C@@H]5CO[C@@H](c6cccs6)O[C@H]5[C@H](O)[C@H]3O)[C@H]3COC(=O)[C@H]23)OCO4)cc(OC)c1O [Teniposide],Papp,"MRP3 [8]; pH 6.5, rat colon, without inhibitor, read-out: Papp M-S, control",16 ± 11.1 ×10⁻⁶ cm/s
same,Papp,"MRP3 [8]; pH 6.5, rat colon, without inhibitor, read-out: Papp S-M, control",21.3 ± 11.9 ×10⁻⁶ cm/s
same,Papp,"MRP3 [8]; pH 6.5, rat ileum, without inhibitor, read-out: Papp M-S, control",12.6 ± 7.7 ×10⁻⁶ cm/s
same,Papp,"MRP3 [8]; pH 6.5, rat ileum, without inhibitor, read-out: Papp S-M, control",24.5 ± 10 ×10⁻⁶ cm/s
same,Papp,"MRP3 [8]; pH 6.5, rat jejunum, without inhibitor, read-out: Papp M-S, control",14 ± 4.4 ×10⁻⁶ cm/s
same,Papp,"MRP3 [8]; pH 6.5, rat jejunum, without inhibitor, read-out: Papp S-M, control",33.5 ± 14 ×10⁻⁶ cm/s
same,Papp,"MRP3 [8]; pH 6.5, with benzbromarone 470 μM, mucosal side, rat colon, with benzbromarone 470 μM on mucosal side, read-out: Papp M-S, with inhibitor",28.3 ± 8.4 ×10⁻⁶ cm/s
same,Papp,"MRP3 [8]; pH 6.5, with benzbromarone 470 μM, mucosal side, rat colon, with benzbromarone 470 μM on mucosal side, read-out: Papp S-M, with inhibitor",8.3 ± 1.9 ×10⁻⁶ cm/s
same,Papp,"MRP3 [8]; pH 6.5, with benzbromarone 470 μM, mucosal side, rat ileum, with benzbromarone 470 μM on mucosal side, read-out: Papp M-S, with inhibitor",28 ± 19.5 ×10⁻⁶ cm/s
same,Papp,"MRP3 [8]; pH 6.5, with benzbromarone 470 μM, mucosal side, rat ileum, with benzbromarone 470 μM on mucosal side, read-out: Papp S-M, with inhibitor",10.3 ± 2.9 ×10⁻⁶ cm/s
same,Papp,"MRP3 [8]; pH 6.5, with benzbromarone 470 μM, mucosal side, rat jejunum, with benzbromarone 470 μM on mucosal side, read-out: Papp M-S, with inhibitor",37.2 ± 9.7 ×10⁻⁶ cm/s
same,Papp,"MRP3 [8]; pH 6.5, with benzbromarone 470 μM, mucosal side, rat jejunum, with benzbromarone 470 μM on mucosal side, read-out: Papp S-M, with inhibitor",13.1 ± 6.4 ×10⁻⁶ cm/s
same,Change of Papp from S-M and Er of teniposide in the presence of emodin,"MRP3 [3]; teniposide 60 μM, emodin 185, 370, 740 μM",remarkably decreased
same,Papp at 60 μM,"MRP3 [3]; pH 6.5, teniposide 60 μM, without emodin, read-out: Papp M-S, control",69.4 ± 17.5 ×10⁻⁶ cm/s
same,Papp at 60 μM,"MRP3 [3]; pH 6.5, teniposide 60 μM, without emodin, read-out: Papp S-M, control",81.8 ± 15.9 ×10⁻⁶ cm/s
same,Papp at 60 μM,"MRP3 [3]; pH 6.5, with emodin 185 μM on mucosal side, teniposide 60 μM, emodin 185 μM on mucosal side, read-out: Papp M-S in the presence of emodin",63.2 ± 5.9 ×10⁻⁶ cm/s
same,Papp at 60 μM,"MRP3 [3]; pH 6.5, with emodin 185 μM on mucosal side, teniposide 60 μM, emodin 185 μM on mucosal side, read-out: Papp S-M in the presence of emodin",56.1 ± 5.7 ×10⁻⁶ cm/s
same,Papp at 60 μM,"MRP3 [3]; pH 6.5, with emodin 370 μM on mucosal side, teniposide 60 μM, emodin 370 μM on mucosal side, read-out: Papp M-S in the presence of emodin",52.5 ± 7.3 ×10⁻⁶ cm/s
same,Papp at 60 μM,"MRP3 [3]; pH 6.5, with emodin 370 μM on mucosal side, teniposide 60 μM, emodin 370 μM on mucosal side, read-out: Papp S-M in the presence of emodin",31.2 ± 13.2 ×10⁻⁶ cm/s
same,Papp at 60 μM,"MRP3 [3]; pH 6.5, with emodin 740 μM on mucosal side, teniposide 60 μM, emodin 740 μM on mucosal side, read-out: Papp M-S in the presence of emodin",91.1 ± 27.3 ×10⁻⁶ cm/s
same,Papp at 60 μM,"MRP3 [3]; pH 6.5, with emodin 740 μM on mucosal side, teniposide 60 μM, emodin 740 μM on mucosal side, read-out: Papp S-M in the presence of emodin",41.1 ± 6.2 ×10⁻⁶ cm/s
